From patent EP1985629A1, “Pro-apoptotic molecules and therapeutic uses thereof” (UNIVERSITA DEGLI STUDI DI GENOVA, priority 2007, dated 2008)
Marks after values point to notes of the source that are not given here. Where a SMILES comes first, the peptide text is derived from it. [ ]: non-standard residue; d: D form. Aib = CC(C)(N)C(=O)O

Legend:
Format in all cases: cell-based, human
caspase 9 = assay: Caspase 9 activation (FITC-LEHD-FMK, FACS analysis); settings: 48 h
Description: (§1) The activation of caspase-9 (mitochondrial apoptosis) and caspase-3 (activated downstream of caspase-9), was evaluated in cell lines (10^6 cells/well in a 24 wells plate) incubated with different concentrations of 072RB (1, 10 µM for 24h, 48h and 72h, in complete RPMI medium + 10% FCS at 37°C, using the caspase-9 and caspase-3 Detection Kit (Calbiochem, Darmstadt, Germany). The assay utilizes LEHD-FMK or DEVD-FMK conjugated to fluorescein-isothiocyanate (FITC) as caspase-9 or caspase-3 in situ marker. FITC-LEHD-FMK and FITC-DEVD-FMK are cell permeable, non toxic, and irreversibly bind only to activated caspase-9 or -3 in apoptotic cells. Samples were run on a flow cytometer (FACSort, Becton Dickinson) equipped with an argon ion laser exiting FITC at 488nm, At least 10^5 events were analysed for each sample using the CellQuest computer program. Data are expressed as Log green fluorescence intensity (a.u.) vs cell number. Calibration was assessed with CALIBRITE particles (Becton Dickinson) using the AutoCOMP computer program.
(§2) Cells were incubated for 24, 48 and 72 h with 072RB (10 µM) or Int (10 µM), together with FITC-LEDH-FMK or FITC-DEVD-FMK, to detect caspase 9 and caspase 3 activation, respectively (FACS analysis). […] Furthermore, caspase 3, a downstream substrate of caspase 9, was progressively activated at increasing incubation times with 072RB. After 24 h of incubation 30% of U937, 35% of Namalwa, 22% of Jurkat cells, respectively, were positive for activated caspase 3; after 72 h of incubation 70% of U937, 60% of Namalwa, and 35% of Jurkat cells, respectively, had activated caspase 3. On the contrary, a negligible fraction of cells incubated with the Int peptide (1-3%), a % similar to that observed in untreated cells, expressed activated caspase 3.

caspase 3 = assay: Caspase 3 activation (FITC-DEVD-FMK, FACS analysis); settings: for cells positive for activated caspase 3: 24 h; for cells with activated caspase 3: 72 h
Description: as §1, §2

[1] = system: AML: acute myeloid leukaemia; assay: Ex vivo bone marrow cells, flow cytometry DNA/SSC analysis of apoptosis; settings: for percentage of early/late apoptotic cells: AML, analysed day 4
Description: (§3) For experiments with primary cells of acute lymphoblastic leukaemia (ALL), […] Acute Myeloid Leukaemia (AML), fresh samples of bone marrow aspirates were from patients who had at least 80% blasts among their mononuclear cells. Normal hematopoietic cells (NBM) were obtained from healthy volunteers. Mononuclear cells were isolated from the samples by Ficoll density-gradient centrifugation. Primary cells were cultured as above. The collection of human specimens was performed after informed consent of the patient during diagnostic procedure. Viability was determined by Facs analysis: PI emission fluorescence.
(§4) Cells were harvested and incubated with 30 µg/ml PI (Sigma Chemical Co.) and 0.5 mg/ml RNase for 30 min at room temperature and in the dark. Flow cytometric measurements of Forward Scatter (FSC) and Side Scatter (SSC) of light emitted from the excitation laser, and of PI emission fluorescence, were performed on a FACSCalibur (Becton Dickinson) flow cytometer. At least 10,000 events were acquired on a linear scale from each sample. Frequency distributions of DNA content and SSC were analysed for the evaluation of apoptosis at different apoptotic stages and cell cycle phases, as previously described.
(§5) Bone marrow aspirates from patients with different leukaemia types were plated in tissue culture medium supplemented with 20% FCS, treated with 072RB twice every 48 h, and followed for 4 days. They were evaluated by flow cytometry DNA/SSC analysis, In Table 3 we show the percentage of [early + late apoptotic cells], according to leukaemia type and Int or 072RB dosage. To further study sensitivity to 072RB of normal cells, peripheral blood lymphocytes (PBL) isolated from four independent healthy donors were subjected to a four-days treatment with 10 µM 072RB. Treatment was performed, as usual, with two pulses at a 48 h interval. Lymphocytes were either un-stimulated or activated by PHA. […] Comparing treated and untreated normal peripheral lymphocytes, the ratio of viable cells between the two groups was 0.87 ± 0.05 (mean ± SE) for quiescent lymphocytes and 0.82 ± 0.057 for proliferating lymphocytes. This effect of 072RB on normal lymphocytes seems especially small if we consider the effects observed in leukaemia cell lines (see supplementary information), and also the effects observed in AML cells from ex vivo experiments: 0.55 ± 0.145 (mean ± SE). Table 3: Effect of 072RB on haematological malignancies (AML: acute myeloid leukaemia; ALL: acute lymphoid leukaemia; NBM: normal bone marrow): percentage of early/late apoptotic cells. Mean values from duplicate experiments are reported. The difference between the two individual values never exceeded 15% of the mean value. Ex vivo isolated cells were treated with either Int or 072RB at day 0, 2 (5, 10 µM), at day 0, 1, 2, 3 (1, 3 µM) and analysed after PI staining at day 4.

[2] = system: ALL: acute lymphoid leukaemia; assay: as above; settings: analysed day 4
Description: as §3, §4, §5

NBM: normal bone marrow = assay: as above; settings: analysed day 4
Description: as §3, §4, §5

[3] = FAB M0 (control 33), 5 µM at day 0, 2
[4] = FAB M0 (control 33), 10 µM at day 0, 2
[5] = FAB M3 (control 23), 5 µM at day 0, 2
[6] = FAB M3 (control 23), 10 µM at day 0, 2
[7] = ALL, Pro-B (control 32), 5 µM at day 0, 2
[8] = ALL, Pro-B (control 32), 10 µM at day 0, 2
[9] = NBM sample with control 15, treated with 15 µM (footnote *), printed in the 10 µM column
[10] = NBM sample with control 39, 10 µM at day 0, 2

Row | Molecule | fraction of cells expressing activated caspase 9 (caspase 9; Jurkat, 10 µM) | fraction of cells expressing activated caspase 9 (caspase 9; Namalwa, 10 µM) | fraction of cells expressing activated caspase 9 (caspase 9; U937, 10 µM) | percentage of early/late apoptotic cells [1, 3] | percentage of early/late apoptotic cells [1, 4] | percentage of early/late apoptotic cells [1, 5] | percentage of early/late apoptotic cells [1, 6] | percentage of early/late apoptotic cells [2, 7] | percentage of early/late apoptotic cells [2, 8] | percentage of early/late apoptotic cells (NBM: normal bone marrow; [9]) | percentage of early/late apoptotic cells (NBM: normal bone marrow; [10]) | also measured
1 | CC[C@H](C)[C@H](NC(=O)[C@H](CCCNC(=N)N)NC(=O)[C@H](CCCNC(=N)N)NC(=O)[C@H](CC(C)C)NC(=O)[C@H](CCC(=O)O)NC(=O)[C@H](CCC(N)=O)NC(=O)C(C)(C)NC(=O)[C@@H](NC(=O)[C@H](Cc1ccc(O)cc1)NC(=O)[C@@H](NC(=O)[C@H](CCC(=O)O)NC(=O)[C@@H]1CCCN1C(=O)[C@H](CCCNC(=N)N)NC(=O)[C@H](CCSC)NC(=O)[C@@H](N)CC(=O)O)[C@@H](C)CC)[C@@H](C)CC)C(=O)NCC(=O)N[C@@H](CC(=O)O)C(=O)N[C@@H](C)C(=O)N[C@@H](Cc1ccccc1)C(=O)N[C@@H](CC(N)=O)C(=O)NC(C)(C)C(=O)N[C@@H](Cc1ccc(O)cc1)C(=O)N[C@@H](CCCCN)C(=O)N[C@@H](CCCCN)C(=O)N[C@@H](Cc1c[nH]c2ccccc12)C(=O)N[C@@H](CCCCN)C(=O)N[C@@H](CCSC)C(=O)N[C@@H](CCCNC(=N)N)C(=O)N[C@@H](CCCNC(=N)N)C(=O)N[C@@H](CC(N)=O)C(=O)N1CCC[C@H]1C(=O)N[C@@H](Cc1ccccc1)C(=O)N[C@@H](Cc1c[nH]c2ccccc12)C(=O)N[C@H](C(=O)N[C@@H](CCCCN)C(=O)N[C@H](C(=O)N[C@@H](CCC(N)=O)C(=O)N[C@@H](CCCNC(=N)N)C(N)=O)[C@@H](C)CC)[C@@H](C)CC [Peptide 072RB] (H-DMRPEIYI[Aib]QELRRIGDAFN[Aib]YKKWKMRRNPFWIKIQR-NH2; N-terminus and C-terminus assumed) | 10-33% | 15-35% | 30-65% | 36 percentage | 42 percentage | 64 percentage | 82 percentage | 56 percentage | 63 percentage | 21* percentage | 39 percentage | cells positive for activated caspase 3 (caspase 3; Jurkat, 10 µM): 22%; cells with activated caspase 3 (caspase 3; Jurkat, 10 µM): 35%; cells positive for activated caspase 3 (caspase 3; Namalwa, 10 µM): 35%; cells with activated caspase 3 (caspase 3; Namalwa, 10 µM): 60%; cells positive for activated caspase 3 (caspase 3; U937, 10 µM): 30%; cells with activated caspase 3 (caspase 3; U937, 10 µM): 70%; ratio of viable cells, treated versus untreated ([1]; AML cells from ex vivo experiments, mean ± SE): 0.55 ± 0.145; percentage of early/late apoptotic cells ([1]; FAB M0-M1 (control 14), 5 µM at day 0, 2): 22 percentage; percentage of early/late apoptotic cells ([1]; FAB M0-M1 (control 14), 10 µM at day 0, 2): 40 percentage; percentage of early/late apoptotic cells ([1]; FAB M2 (control 24), 5 µM at day 0, 2): 66 percentage; percentage of early/late apoptotic cells ([1]; FAB M4-M5 (control 50), 5 µM at day 0, 2): 75 percentage; percentage of early/late apoptotic cells ([1]; FAB M6 (control 15), 10 µM at day 0, 2): 67 percentage; percentage of early/late apoptotic cells ([2]; ALL sample with control 40, 5 µM at day 0, 2): 42 percentage; percentage of early/late apoptotic cells ([2]; ALL sample with control 40, 10 µM at day 0, 2): 45 percentage; percentage of early/late apoptotic cells ([2]; ALL sample with control 43, 5 µM at day 0, 2): 67 percentage; percentage of early/late apoptotic cells ([2]; ALL sample with control 52, 5 µM at day 0, 2): 60 percentage; percentage of early/late apoptotic cells ([2]; ALL sample with control 52, 10 µM at day 0, 2): 80 percentage
2 | KKWKMRRNPFWIKIQR [Int, internalisation tag, a modified Q50P 16 aa Antennapedia IIIrd α-helix, reference compound] | 1.3% | 2.0% | 1.5% | 32 percentage | 38 percentage | 26 percentage | 28 percentage | 32 percentage | 43 percentage | 18* percentage | 37 percentage | fraction of cells expressing activated caspase 3 (caspase 3; 10 µM, cell line and time not specified, similar to untreated cells): 1-3%
